This passage reports melting point results from a melting point compilation (Tetko et al.; mined from patent text by program, amines drawn as free bases though some values may be those of a salt).

The structures appear in SMILES notation.

Compound `O=C(CCC(=O)[C@H](Cc1ccccc1)NC(=O)c1ccccc1)N[C@@H](Cc1c[nH]c2ccccc12)C(=O)O` returned a melting point of 171 to 173 °C.
The result for `CN1C(=O)N(Cc2cc(C(F)(F)F)cc(C(F)(F)F)c2)C(=O)C1=Cc1c[nH]c2ccccc12` reads 145 to 147 °C; that for `COc1ccc2cc(O)c(C(=O)Nc3ccccc3)cc2c1`, 230 °C.
`NC(=O)Cc1cccc(Cn2ccc(OCc3ccc(F)cc3F)c(Br)c2=O)c1`: the melting point was in the range of 164 to 167 °C.
Regarding `CC(C)(C)OC(=O)N1CCC(C(=O)N2CCC(c3[nH]nc4c3C(=O)c3c(NC(=O)NN5CCOCC5)cccc3-4)CC2)CC1`, the melting point was in the range of 220 to 222 °C.
As to `CC(C)(C)OC(=O)C(=[N+]=[N-])C(=O)COCc1ccccc1`, the melting point came to 68 °C.
In turn, `CS(=O)(=O)OCCNc1ccc([N+](=O)[O-])cc1Cl` yielded a melting point of 114 to 115 °C.
To `CN(C)C=CC(=O)c1c(-c2ccc(C(C)(C)NC(=O)OC(C)(C)C)cc2)ccc2nn(C3CCCCO3)cc12` (configuration not stated) belongs 191 to 194 °C; to `CC(C)(C)CNc1nc(Cl)cc(N2CCCC2)n1`, 147 to 150 °C; to `CC(C)C[C@H](NC(=O)[C@H](Cc1c[nH]cn1)NC(=O)C(CC(=O)NCCc1ccccc1)Cc1cccc2ccccc12)[C@@H](O)CCO` (some centres not stated), 87 to 92 °C.
Consider `CCOC(=O)c1cc(SCc2ccccc2)c(Sc2ccccc2)c(S(N)(=O)=O)c1`, for which the melting point was in the range of 151 to 152 °C.
As to `CCOc1c(C)cnc(CSc2nc3cc4c(cc3[nH]2)OCO4)c1C`, the melting point was 184 to 185 °C.
The result for `CCCC(CC)Nc1cc(C(=O)O)ccc1N1C(=O)CCC1(CO)CO` (configuration not stated) reads 232 to 233 °C; that for `CCOC(=O)c1cc2cc(Cl)cc([N+](=O)[O-])c2o1`, 111 to 112 °C.
To `C[C@@H]1Cc2cc3c(cc2C(c2ccc([N+](=O)[O-])cc2)=NN1C(=S)NN)OCO3` belongs 140 to 142 °C.
`CCc1cc2c(-c3ccccc3Cl)c([N+](=O)[O-])cnc2s1` yielded a melting point of 72 to 73 °C.
Regarding `CC(=O)N(C)c1cc(OCc2ccccc2)c2nc(C)n(C)c2c1`, the melting point was 144 to 149 °C.
In the case of `CCOC(=O)CN(C)c1ccc(N=O)cc1`, the melting point was in the range of 55 to 56 °C.
To `O=C(O)c1ccc(NC(=O)c2ccccc2-c2ccccc2)nc1` belongs 215 to 217 °C; to `CNc1cc2c(cn1)c(=O)n1nccc1n2C`, above 300 °C; to `N#Cc1ccc(C(F)(F)F)cc1N=NN(C(=O)Nc1ccccc1)c1cc(C(F)(F)F)ccc1C#N`, 157 to 158 °C.
`CCN(CC)CCN1C(=O)C(OC(C)=O)C(c2ccc(OC)cc2)Sc2c1ccc1ccccc21` (configuration not stated) gave a melting point of 148 to 149 °C.
Regarding `O=C(Nc1ncccn1)c1c(Cl)ccc2c1OCCO2`, the melting point was 223 °C.
For `O=C(Cc1ccccc1)c1ccc(C(=O)Cc2ccccc2)cc1`, the melting point fell in the range of 171 to 173 °C.
`CC(C)Oc1cc(CCCOc2cc(CCC(=O)O)n(Cc3ccccc3)n2)n(Cc2ccc(Cl)cc2Cl)n1` came in with a melting point of 123 to 126 °C.
The result for `CC(SC1COC(c2cccc(C(=O)Nc3ccc(Cl)cc3)c2)OC1)C(O)(Cn1cncn1)c1ccc(F)cc1F` (configuration not stated) reads 90 °C; that for `O=C(O)CCc1cnoc1-c1ccc(Cl)c(F)c1`, 139 to 140 °C; that for `O=C(C=Cc1cccc([N+](=O)[O-])c1)N1CCc2c([nH]c3ccccc23)C1c1ccc2c(c1)CCO2` (configuration not stated), 174 to 176 °C.
`CCN(CC)C(=O)CCc1c[nH]c2ccc(Br)cc12` registered a melting point of 128 °C.
In turn, `CSCCCCn1c(C)nc2c(N)nc3ccccc3c21` returned a melting point of 190 to 193 °C.
`Brc1ccc(OC2CCN(CCc3c[nH]c4ccccc34)CC2)cc1`: the melting point lay within 132 to 134 °C.
The result for `CN(SCl)C(=O)Nc1ccc(Cl)c(Cl)c1` reads 142 to 145 °C; that for `COc1ccc(-c2cnc(NC(=S)Cc3ccccc3)c(Cc3ccccc3)n2)cc1`, 45 to 47 °C.
To `Cn1cc(S(=O)(=O)NCc2ccccc2)c(=O)c2ccc(Cl)cc21` belongs 208 to 210 °C.
With `Cc1nnc(-c2ccc3occ(-c4cccc(F)c4)c3c2)o1`, the melting point was 138 to 139 °C.
The compound `CS(=O)(=O)c1cc2c(c(C(=O)O)c1)OCCO2` yielded a melting point of 247 to 249 °C.
In turn, `Nc1nc(C2CCCCN2)ncc1-c1ccc(Cl)cc1Cl` (configuration not stated) displayed a melting point of 169 °C.
`COc1cc2ncnc(N3CCN(C(=O)Nc4ccc(CC(C)C)cc4)CC3)c2cc1OC` displayed a melting point of 215 to 217 °C.
The result for `CC(C)(C)c1cc(C#N)c(O)c(Br)c1Cl` reads 105 to 107 °C.
`COc1cccc(CNC(=O)c2nc3cccc(OCc4ccc(-c5nnn[nH]5)cc4)c3c(=O)[nH]2)c1` came in with a melting point of 227 to 229 °C.
To `CCCc1c(C(=O)C(C)C)c2ccc(C(=O)O)cc2n1Cc1ccccc1C#N` belongs 214 to 215 °C.
`CCOC(=O)Cc1cn2cc(Br)nc(NC)c2n1` came in with a melting point of 104 °C.
For `CS(=O)(=O)c1ccc(-c2ccc(F)n2-c2ccc(F)cc2)cc1`, the melting point was in the range of 140 to 141 °C.
In turn, `O=C1c2ccc(F)cc2C(=O)N1CCN1CCN(c2n[nH]c3cc(F)ccc23)CC1` displayed a melting point of 282 to 285 °C.
`COc1cc2c(c3c1c(=O)c1cc4ccccc4cc1n3C)[C@H](OC(=O)N(C)C)[C@H](OC(=O)N(C)C)C(C)(C)O2` came in with a melting point of 173 °C.
With `CCOC(=O)c1cc2c(O)nncc2nc1NC(C)CC` (configuration not stated), the melting point lay within 184 to 185 °C.
Regarding `CN[C@@H](CO)Cc1ccccc1`, the melting point stood at 69 °C.
As for `Cc1cc(NC(=O)C(=O)N(C(C)C)C(C)C)cc(C)c1S(=O)(=O)C[N+](=O)[O-]`, the melting point was in the range of 97 to 98 °C.
On to `CC(C)(C(=O)O)c1cn2nc(CCCN3CCN(C(c4ccccc4)c4ccccc4)CC3)ccc2n1`, for which the melting point lay in the range of 176 to 178 °C.
`CC(C)n1cc(C2CCC(=O)CC2)c2cc(C#N)ccc21` yielded a melting point of 106 to 107 °C.
On to `O=C(C1=C(N2CCCC2)CCC1)c1cccnc1Cl`, for which the melting point is 102 to 104 °C.
Regarding `CN1CCN(c2cc(F)cc3c(=O)cc(C(=O)Nc4ccc(N5CCN(C(=O)CCO)CC5)cc4)oc23)CC1`, the melting point was in the range of 195 to 199 °C.
Regarding `Nc1c(CCO)cccc1C(O)c1ccccc1` (configuration not stated), the melting point was determined as 101 °C.
`CCN(CC)C(=O)n1cnc(S(=O)(=O)c2cc(F)c(C#N)cc2F)n1` came in with a melting point of 98 °C.
Take `CCC(CC)c1ccc(Cl)c2nc(Nc3c(C)cc(Cl)cc3OC)n(CC(=O)OC(C)C)c12`: the melting point is 205 to 207 °C.
Compound `O=C(Nc1ccc(Cl)cn1)c1ccccc1O` gave a melting point of 206 to 207 °C.
Turning to `CN(C)C=NC(=O)c1cnn2c(-c3ccccc3)ccnc12`, the melting point lay in the range of 198 to 202 °C.
As to `C=CCc1cc2c(c(CC=C)c1O)N(CC=Cc1ccccc1)C(=O)CC2`, the melting point lay within 132 to 138 °C.
On to `CN1CCN(c2ccc(S(=O)(=O)Oc3cc(Cl)c(Cl)cc3Cl)cc2)C1=O`, for which the melting point fell in the range of 181 to 183 °C.
`O=C(O)C(=CNc1ccc(OCc2ccccc2)c(OCc2ccccc2)c1)C(=O)O` returned a melting point of 73 to 76 °C.
The compound `NS(=O)(=O)c1ccc(-c2cccn2-c2ccc(F)cc2)cc1` gave a melting point of 160 to 161 °C.
Turning to `COC(=O)C1=CCCn2c(=O)c3ccccc3c(=O)n21`, the melting point fell in the range of 156 to 157 °C.
Turning to `COc1ccc2c(c1)c(OC(C)C)c(C(=O)O)n2-c1ccccc1`, the melting point came to 110 °C.
Compound `CC1CC=C(c2ccc(C(C)O)cc2)CC1` (configuration not stated) gave a melting point of 65 to 67 °C.
As for `NC1=CN(Cc2ccc(Cl)cc2)CN=C1`, the melting point was 128 to 129 °C.
The compound `Nc1cc(Oc2ccc3c(c2)CCN3C(=O)Nc2cccc(C(F)(F)F)c2)ncn1` returned a melting point of 186 to 187 °C.
`CC(C(=O)O)c1ccc(-n2cccn2)cc1` (configuration not stated) showed a melting point of 137 to 138 °C.
To `CCOC(=O)CCC1OC(=O)C(O)=C1c1ccccc1` (configuration not stated) belongs 114 to 116 °C; to `COCCNC(=O)c1c(O)c2cnc(-c3ccccc3)nc2n(CCOC)c1=O`, 150 to 154 °C.
In turn, `Cc1ccc(F)cc1C(C)(C)CC(O)(Cn1ccc(=O)c2sccc21)C(F)(F)F` (configuration not stated) registered a melting point of 175 to 176 °C.
For `Fc1ccc(-c2[nH]nc(C3=CC4CCCN4CC3)c2-c2ccncc2)cc1` (configuration not stated), the melting point lay within 204 to 208 °C.
Compound `O=[N+]([O-])c1nccn1COCCO` displayed a melting point of 115 °C.
The result for `COC(=O)c1cc(N(C)C(C)=O)c(Cl)c(N(C)C(C)=O)c1` reads 162 to 164 °C.
On to `Cn1c(CCN2CCN(Cc3ccccc3)CC2)nc2cc(Br)c3ccccc3c21`, for which the melting point lay within 155 to 157 °C.
Turning to `Cc1cccc(-n2c(-c3cc(-c4ccccc4)c(N4CCOCC4)s3)nc3ccccc3c2=O)c1`, the melting point lay in the range of 194 to 196 °C.
`CCCCN(CCCC)c1ccc(C(C#N)=C(C#N)C#N)c(OC)c1` came in with a melting point of 86 °C.
Consider `CC(C)(C)C(=O)NCCc1cccs1`, for which the melting point is 79 to 80 °C.
On to `O=C(Cc1ccccn1)N1CCC(C2c3ccc(Cl)cc3CCc3cccnc32)CC1` (configuration not stated), for which the melting point fell in the range of 81.7 to 82 °C.
The compound `COC(=O)[C@@H]1C[C@@H](O)CN1C(=O)c1ccc(C#N)cc1` showed a melting point of 101 to 102 °C.
Compound `CCCC(Oc1ccccc1COc1ccc2oc(-c3nc(C(C)(C)C)cs3)cc2c1)C(=O)O` (configuration not stated) returned a melting point of 135 to 136 °C.
To `O=C(CBr)NCCSC(c1ccccc1)(c1ccccc1)c1ccccc1` belongs 130 to 135 °C; to `Nc1cccc(Cn2c(-c3ccccc3Cl)cc3ccc(Oc4cncnc4)cc32)n1`, 115 to 117 °C.
For the compound `CC(C)CC(SC1CCCC1)c1c(O)cc(-c2ccccc2)oc1=O` (configuration not stated), the melting point fell in the range of 146 to 149 °C.
The compound `S=C1Nc2cc(Br)ccc2-n2ccc3cccc1c32` gave a melting point of 214 to 215 °C.
To `CN(C)C(=S)C(O)c1ccccc1C(F)(F)F` (configuration not stated) belongs 112 to 115 °C; to `COc1ccc(-n2nc(Sc3ccc(C)c(C)c3)c(C)c(C#N)c2=O)cc1`, 158 to 160 °C; to `CCCNS(=O)(=O)c1cc(C)c2cc(C(C)C)ccc(C)c1-2`, 60 to 62 °C.
